Measured values from patent US10220001B2, “Active self-healing biomaterial system” (The Regents of the University of Michigan, priority 2010, dated 2019).

System: serum testosterone
Assay: Testosterone suppression in rats after injection of leuprolide acetate self-encapsulated PLGA microspheres
Type: in vivo, male Sprague-Dawley rats
Details: for testosterone suppression: result in words
Method: Evaluation of testosterone suppression in rats following injection of leuprolide acetate self-encapsulated PLGA microspheres: The ability of PLGA self-healing microencapsulation to provide long-term in vivo release was evaluated by assessing long-term testosterone suppression after a single injection of leuprolide acetate self-encapsulated PLGA microspheres in male Sprague-Dawley rats (S5-S8). The treatment of experimental animals was in accordance with University committee on use and care of animals (University of Michigan UCUCA), and all NIH guidelines for the care and use of laboratory animals. Male Sprague-Dawley rats of 6 weeks old were housed in cages and given free access to standard laboratory food and water, and allowed one week to acclimate prior to study initiation. Animals were anesthetized with 2-4% isoflurane administered by a calibrated vaporizer (Midmark, Orchard Park, N.Y., USA). The leuprolide acetate self-encapsulated PLGA microspheres (1×2-month dose), leuprolide acetate solution (1×1-month dose), and blank SM PLGA microspheres without drug (1× dose) in a liquid vehicle (1% w/v carboxymethylcellulose and 2% w/v mannitol), and commercial 1-month Lupron Depot (Abbott Laboratories, North Chicago, Ill., USA) (2× dosing at days 0 and 28) were subcutaneously injected at the back (lower neck portion) of rats (6 animals/study group). […]
PLGA self-healing microencapsulation provides long-term delivery of bioactive large molecules in vivo—Long-term testosterone suppression in rats after single injection of leuprolide acetate self-encapsulated PLGA microspheres: Leuprolide acetate (Mw=1209.6 Da) is commonly used in the treatment of hormone-dependent cancers (e.g., prostate cancer) and gynecologic disorders (e.g., endometriosis and precocious puberty). […] The ability of PLGA self-healing microencapsulation to provide long-term in vivo release was evaluated by assessing long-term testosterone suppression in male Sprague-Dawley rats (six rats/study group) in comparison with commercial Lupron Depot™ and negative controls (FIG. 2C). […]

Which results are given for CCNC(=O)[C@@H]1CCCN1C(=O)[C@H](CCCNC(=N)N)NC(=O)[C@H](CC(C)C)NC(=O)[C@@H](CC(C)C)NC(=O)[C@H](Cc1ccc(O)cc1)NC(=O)[C@H](CO)NC(=O)[C@H](Cc1c[nH]c2ccccc12)NC(=O)[C@H](Cc1c[nH]cn1)NC(=O)[C@@H]1CCC(=O)N1 [leuprolide solution, Leuprolide acetate]?
serum testosterone level (one day after subcutaneous injection): ~5 ng/mL; testosterone suppression: failed to provide testosterone suppression below the castration level; testosterone suppression (listed as solution leuprolide): ineffective to suppress testosterone
